The target in data set [1] is GABAA α1β2γ2 (Homo sapiens, UniProt P14867+P47870). As to the kind of experiment: GABAA electrophysiology, PAM mode, SyncroPatch automated patch clamp. The format is cell-based. The following applies: for Emax: read-out: GABAA α1β2γ2 Maximum Potentiation. As to the method:
(§1) The SyncroPatch assay is performed at room temperature. A fast application protocol is used, in which the ligand is rapidly applied and then removed from the cell. To test for PAM mode, the agonist (GABA EC20) is applied three times as a control and to show reproducibility, followed by a minimum 2-minute pre-incubation of client compound and then re-application of agonist (GABA EC20) in the presence of client compound. Finally, a saturating concentration of agonist is applied. A steady-state voltage pulse at −80 mV is applied throughout the assay. Compounds are prepared as 10 mM DMSO stocks.
(§2) Automated patch clamp-recordings are performed using the SyncroPatch 384i. The voltage protocol generation and data collection are performed with Patch Controller 384 V2.2.1 and Data Controller V2.3.0. The PAM activity is calculated using the following equation, [(Icomp/Ireference)−1], where Icomp is the current amplitude in the presence of the compound and Ireference is the current amplitude in the presence of GABA alone. This builds an activation concentration-response curve (CRC), where <0.2 represents no PAM activity and >0.2 represents PAM activity. If a “bell-shape curve” is observed at the higher concentrations, showing a reduction in activity in comparison to previous concentrations, then to allow for a more accurate curve fit, these concentrations are removed from the graphs where necessary and noted in the results table.
For orientation: In patch-clamp work, channel activity is measured electrically.

Data set [2] deals with GABAA α4β3δ (Homo sapiens, UniProt P28472+P48169). The description is as above. In kind it is cell-based. The following applies: for Emax: read-out: GABAA α4β3δ Maximum Potentiation; for selectivity for GABAA receptor containing the delta (δ) subunit compared to a GABAA receptor without it: α4β3δ vs α1β2γ2, in words. As for the experimental part:
as §1, §2

Data set [3] in a line: Microsomal stability assay. In kind it is in vitro ADME. The following applies: Human Liver Microsomes, 37° C., unit in cell hr (head: min), read-out: HLM t1/2. As to the method:
3 μM test compound was incubated in Human Liver Microsomes (Xenotech) at 37° C. with aliquots ([…]) removed at 0, 5, 10, 15, and 30 minutes. Enzymatic activity was quenched at each time point with the addition of 200 μL of acetonitrile containing 2 μM internal standard (d5-7-ethoxy coumarin), immediately vortexed and centrifuged at 15,000 rpm for 25 min at 4° C. Supernatants were transferred to autosampler vials for LC-MS/MS analysis. LC-MS/MS analysis was performed using Agilent Infinity II 1260 HPLC coupled to a G6460C QQQ MS. Half-lives were determined by plotting ln of % test compound remaining versus time and performing linear regression to determine the slope. Slope=−k and t½=0.693/k for first order kinetics.
In general terms: Liver microsomes are vesicles of endoplasmic reticulum, rich in cytochrome P450 enzymes.

Data set [4] can be described thus: Plasma stability assay. The format is in vitro ADME. The conditions noted are these: human plasma, 37° C., read-out: Human plasma t1/2. As to the method:
3 μM test compound was incubated in Human or Mouse plasma (BioIVT) at 37° C. with aliquots (100 μL) removed at 0, 15, 30, 60, 120, and 240 minutes. Enzymatic activity was quenched at each time point with the addition of 200 μL of acetonitrile containing 2 μM internal standard (d5-7-ethoxy coumarin), immediately vortexed and centrifuged at 15,000 rpm for 25 min at 4° C. Supernatants were transferred to autosampler vials for LC-MS/MS analysis. LC-MS/MS analysis was performed using Agilent Infinity II 1260 HPLC coupled to a G6460C QQQ MS. Half-lives were determined by plotting ln of % test compound remaining versus time and performing linear regression to determine the slope. Slope=−k and t½=0.693/k for first order kinetics.

The nature of data set [5]: Aqueous stability assay in PBS (DPBS), HPLC. The conditions noted are these: 1 mg/mL, room temperature, parent remaining at 2 hr, read-out: PBS (% REM at 2 hr). In kind it is physicochemical. As to the method:
Aqueous stability experiments were performed on an Agilent 1100 HPLC equipped with an Agilent 1200 autosampler. HPLC grade solvents were exclusively used during analysis, with acetonitrile being purchased from Sigma Aldrich, and water and formic acid provided by Fisher Scientific. Sample solutions were prepared in 2.0 mL large opening RAM™ vials from Chemglass using DPBS as the aqueous medium.
Tested compounds were dissolved in DPBS at a standard concentration of 1 mg/mL. All mixtures were then sonicated for 5 min or stirred until complete dissolution was achieved. Any precipitate observed in sample solutions was filtered with a PTFE syringe filter prior to analysis. Immediately after sample preparation, injection by the HPLC autosampler was performed, which was recorded as the initial time point (t=0 min). Samples were then kept in the autosampler at room temperature and injected at designated intervals without additional filtration or sample modification. Next, the area of the parent peak in each chromatogram was determined by automated integration in the Agilent ChemStation software. Pseudo first-order half-lives were then ascertained by calculating the percent of the parent compound remaining after each time point, Plots of time (x-axis) vs. the natural logarithm of percent parent remaining (y-axis) were subsequently constructed to determine the slope. Finally, the aqueous stability was evaluated using the following equation: […]
The HPLC conditions were as follows: injection volume, 1 μL; column temperature: 40° C.; detector: 254 nm; stationary phase: Zorbax Eclipse XDB-C18 (4.6×150 mm, 5 μm); flow rate: 1 mL/min; mobile phase: 80-95% acetonitrile in H2O (0.1% formic acid).

Data set [6] is described as follows: Aqueous solubility. The conditions noted are these: water.

Data on ten compounds can be found in patent publication US20260285897A1, “Neurosteroids and Prodrugs Thereof” (Emory University, priority 2023, published 2026).

Chain of GABAA α4β3δ (P48169 36-554): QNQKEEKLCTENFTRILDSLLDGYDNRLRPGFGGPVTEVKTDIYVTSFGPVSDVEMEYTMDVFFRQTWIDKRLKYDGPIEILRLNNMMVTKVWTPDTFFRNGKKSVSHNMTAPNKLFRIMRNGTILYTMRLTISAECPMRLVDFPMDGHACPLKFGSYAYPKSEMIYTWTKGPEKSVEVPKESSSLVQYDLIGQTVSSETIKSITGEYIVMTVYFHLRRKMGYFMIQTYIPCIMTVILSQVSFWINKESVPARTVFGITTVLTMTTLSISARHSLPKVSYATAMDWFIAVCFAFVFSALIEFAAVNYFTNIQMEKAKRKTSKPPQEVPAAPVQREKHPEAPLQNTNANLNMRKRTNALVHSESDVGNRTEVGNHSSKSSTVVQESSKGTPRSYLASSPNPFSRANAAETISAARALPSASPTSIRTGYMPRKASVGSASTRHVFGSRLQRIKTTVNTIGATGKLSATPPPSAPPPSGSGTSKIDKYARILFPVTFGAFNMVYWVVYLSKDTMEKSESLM
Chain of GABAA α4β3δ (P28472 26-473): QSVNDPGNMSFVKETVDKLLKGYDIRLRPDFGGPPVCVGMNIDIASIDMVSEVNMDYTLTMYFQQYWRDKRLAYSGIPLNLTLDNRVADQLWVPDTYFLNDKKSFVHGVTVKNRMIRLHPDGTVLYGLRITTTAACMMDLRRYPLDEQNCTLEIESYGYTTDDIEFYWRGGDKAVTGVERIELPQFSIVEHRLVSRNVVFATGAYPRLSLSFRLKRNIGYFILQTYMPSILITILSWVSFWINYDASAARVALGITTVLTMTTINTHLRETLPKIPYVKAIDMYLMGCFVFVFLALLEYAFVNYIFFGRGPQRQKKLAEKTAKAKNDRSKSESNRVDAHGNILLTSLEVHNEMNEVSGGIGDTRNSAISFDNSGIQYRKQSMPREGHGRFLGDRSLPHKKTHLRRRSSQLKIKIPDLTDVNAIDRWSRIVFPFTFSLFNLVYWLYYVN
Chain of GABAA α4β3δ (O14764 17-452 partner limits assumed): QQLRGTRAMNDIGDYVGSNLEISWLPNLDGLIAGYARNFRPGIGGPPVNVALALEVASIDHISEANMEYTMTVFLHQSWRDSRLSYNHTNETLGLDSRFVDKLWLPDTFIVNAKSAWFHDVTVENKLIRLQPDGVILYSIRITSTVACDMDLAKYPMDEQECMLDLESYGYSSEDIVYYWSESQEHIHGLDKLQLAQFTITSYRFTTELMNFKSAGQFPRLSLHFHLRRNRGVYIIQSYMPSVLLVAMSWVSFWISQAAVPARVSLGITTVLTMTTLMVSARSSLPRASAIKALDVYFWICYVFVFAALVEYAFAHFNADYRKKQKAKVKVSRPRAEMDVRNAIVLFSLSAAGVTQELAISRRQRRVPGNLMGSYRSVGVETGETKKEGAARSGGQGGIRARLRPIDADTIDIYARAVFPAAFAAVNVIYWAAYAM
Chain of GABAA α1β2γ2 (P14867 28-456): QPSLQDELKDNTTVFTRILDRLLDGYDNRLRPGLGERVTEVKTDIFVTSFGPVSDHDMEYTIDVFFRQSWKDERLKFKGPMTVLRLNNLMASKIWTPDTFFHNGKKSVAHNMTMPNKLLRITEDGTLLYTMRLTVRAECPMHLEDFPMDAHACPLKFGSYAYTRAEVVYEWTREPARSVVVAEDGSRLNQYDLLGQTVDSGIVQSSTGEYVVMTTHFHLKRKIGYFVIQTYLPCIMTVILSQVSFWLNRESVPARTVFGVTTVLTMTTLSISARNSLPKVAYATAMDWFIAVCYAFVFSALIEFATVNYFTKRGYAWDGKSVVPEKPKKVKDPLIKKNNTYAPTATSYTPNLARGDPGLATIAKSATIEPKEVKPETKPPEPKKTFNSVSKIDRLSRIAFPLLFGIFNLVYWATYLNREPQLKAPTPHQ
Chain of GABAA α1β2γ2 (P47870 25-512 limits assumed): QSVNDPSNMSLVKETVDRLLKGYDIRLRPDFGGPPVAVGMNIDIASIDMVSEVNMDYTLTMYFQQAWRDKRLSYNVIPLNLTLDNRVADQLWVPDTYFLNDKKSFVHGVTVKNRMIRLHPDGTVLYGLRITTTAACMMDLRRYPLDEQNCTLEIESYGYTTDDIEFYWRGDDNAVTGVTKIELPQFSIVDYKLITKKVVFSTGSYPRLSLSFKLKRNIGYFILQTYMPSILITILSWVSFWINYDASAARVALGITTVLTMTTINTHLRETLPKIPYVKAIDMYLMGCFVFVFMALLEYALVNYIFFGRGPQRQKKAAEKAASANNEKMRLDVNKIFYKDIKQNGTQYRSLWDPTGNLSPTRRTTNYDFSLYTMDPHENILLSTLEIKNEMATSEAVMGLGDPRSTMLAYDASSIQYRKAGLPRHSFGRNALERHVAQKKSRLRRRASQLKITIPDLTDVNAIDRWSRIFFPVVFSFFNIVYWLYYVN
Chain of GABAA α1β2γ2 (P18507 40-475 partner): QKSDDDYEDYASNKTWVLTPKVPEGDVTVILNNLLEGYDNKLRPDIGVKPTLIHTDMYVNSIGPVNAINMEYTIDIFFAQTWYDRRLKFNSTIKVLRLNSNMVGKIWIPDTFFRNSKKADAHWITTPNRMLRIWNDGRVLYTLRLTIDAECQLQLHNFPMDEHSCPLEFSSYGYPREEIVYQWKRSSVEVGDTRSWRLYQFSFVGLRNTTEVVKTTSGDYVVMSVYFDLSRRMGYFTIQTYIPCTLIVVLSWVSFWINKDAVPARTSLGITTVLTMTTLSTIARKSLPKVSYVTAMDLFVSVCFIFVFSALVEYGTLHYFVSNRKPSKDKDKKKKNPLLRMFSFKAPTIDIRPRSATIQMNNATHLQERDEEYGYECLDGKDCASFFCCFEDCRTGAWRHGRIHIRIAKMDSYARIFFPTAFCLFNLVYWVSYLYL

Turning to `C/C(=N\O)[C@H]1CC[C@H]2[C@@H]3CC[C@H]4C[C@](C)(O)CC[C@]4(C)[C@H]3CC[C@]12C` [GP-GAN- 001 (10), (E)-1-((3R,8R,9S,10S,13S,14S,17S)-3-hydroxy-3,10,13-trimethylhexadecahydro-1H-cyclopenta[a]phenanthren-17-yl)ethan-1-one oxime], the figures for the EC50 in data set [1] and in data set [2] were 1620 nM and 1000 nM, respectively. Besides, the Emax in data set [1] turned out to be 133%; in data set [2], 533%. For the same compound, the half-life at 3 µM was over 120 min in data set [3] and over 240 min in data set [4] (unit in cell hr (head: min)).

Take `CNCCN(C)C(=O)O/N=C(\C)[C@H]1CC[C@H]2[C@@H]3CCC4C[C@](C)(O)CC[C@]4(C)[C@H]3CC[C@]12C.Cl` (stereo partly drawn) [GP-GAN- 002 (20a), (E)-1-((3R,8R,9S,10S,13S,14S,17S)-3-hydroxy-3,10,13-trimethylhexadecahydro-1H-cyclopenta[a]phenanthren-17-yl)ethan-1-one O-(methyl(2-(methylamino)ethyl)carbamoyl) oxime hydrochloride]: the remaining at 2 h in data set [5] is 66%. In data set [6], this compound yielded a solubility of over 750 µM. Further, the half-life at 3 µM in data set [4] amounted to 55 min.

Take `C/C(=N\OC(=O)N(C)C[C@@H]1CCCN1)[C@H]1CC[C@H]2[C@@H]3CCC4C[C@](C)(O)CC[C@]4(C)[C@H]3CC[C@]12C.Cl` (stereo partly drawn) [GP-GAN- 003 (20b), (E)-1-((3R,8R,9S,10S,13S,14S,17S)-3-hydroxy-3,10,13-trimethylhexadecahydro-1H-cyclopenta[a]phenanthren-17-yl)ethan-1-one O-(methyl(((S)-pyrrolidin-2-yl)methyl)carbamoyl) oxime hydrochloride]: the remaining at 2 h in data set [5] was 10%. In data set [6], the solubility is over 750 µM. Moreover, the half-life at 3 µM in data set [4] is 6 min.

Regarding `CNCCN(C(=O)O/N=C(\C)[C@H]1CC[C@H]2[C@@H]3CCC4C[C@](C)(O)CC[C@]4(C)[C@H]3CC[C@]12C)C(C)C.Cl` (stereo partly drawn) [GP-GAN- 004 (20d), (E)-1-((3R,8R,9S,10S,13S,14S,17S)-3-hydroxy-3,10,13-trimethylhexadecahydro-1H-cyclopenta[a]phenanthren-17-yl)ethan-1-one O-(isopropyl(2-(methylamino)ethyl)carbamoyl) oxime hydrochloride], the remaining at 2 h in data set [5] is 52%. Moreover, the solubility in data set [6] was over 750 µM. Also, the half-life at 3 µM in data set [4] is 28 min.

Regarding `CNCCN(C(=O)O/N=C(\C)[C@H]1CC[C@H]2[C@@H]3CCC4C[C@](C)(O)CC[C@]4(C)[C@H]3CC[C@]12C)C1CCC1.Cl` (stereo partly drawn) [GP-GAN- 005 (20c), (E)-1-((3R,8R,9S,10S,13S,14S,17S)-3-hydroxy-3,10,13-trimethylhexadecahydro-1H-cyclopenta[a]phenanthren-17-yl)ethan-1-one O-(cyclobutyl(2-(methylamino)ethyl)carbamoyl) oxime hydrochloride], the remaining at 2 h in data set [5] was 43%. This compound also displayed a solubility in data set [6] of over 750 µM. Moreover, the half-life at 3 µM in data set [4] came to 39 min.

For `C/C(=N\O)[C@@]1(F)CC[C@H]2[C@@H]3CC[C@H]4C[C@](C)(O)CC[C@]4(C)[C@H]3CC[C@@]21C` [GP-GAN- 006 (15), (E)-1-((3R,8R,9S,10S,13S,14S,17R)-17-fluoro-3-hydroxy-3,10,13-trimethylhexadecahydro-1H-cyclopenta[a]phenanthren-17-yl)ethan-1-one oxime], the remaining at 2 h in data set [5] was determined as 61%. Moreover, the half-life at 3 µM in data set [4] amounted to 3 min.

`C/C(=N\OCOP(=O)(O)O)[C@H]1CC[C@H]2[C@@H]3CCC4C[C@](C)(O)CC[C@]4(C)[C@H]3CC[C@]12C` (stereo partly drawn) [GP-GAN- 007 (22), 1,3-Dihydroxy-2-(hydroxymethyl)propan-2-aminium ((((E)-1-((3R,8R,9S,10S,13S,14S,17S)-3-hydroxy-3,10,13-trimethylhexadecahydro-1H-cyclopenta[a]phenanthren-17-yl)ethylidene)amino)oxy)methyl hydrogen phosphate] had a solubility in data set [6] of over 1000 µM.

`CC(=O)[C@H]1CC[C@H]2[C@@H]3CC[C@H]4C[C@](C)(O)CC[C@]4(C)[C@H]3CC[C@]12C` [Ganaxalone, Ganaxolone, reference compound]: the values for the half-maximal effective concentration (EC50) in data set [1] and in data set [2] were 540 nM and 879 nM, respectively.

Take `C/C(=N\O)[C@H]1CC[C@H]2[C@@H]3CC[C@@H]4C[C@](C)(O)CC[C@@H]4[C@H]3CC[C@]12C` [LEH- NEURO- 007 (30), (E)-1-((3R,5R,8R,9R,10S,13S,14S,17S)-3-hydroxy-3,13-dimethylhexadecahydro-1H-cyclopenta[a]phenanthren-17-yl)ethan-1-one oxime]: in data set [1], the EC50 amounted to 692 nM and the Emax came to 121%. Besides, in data set [2], it took 383 nM to reach a half-maximal effect (EC50), the Emax came out at 510% and the “selectivity for GABAA receptor containing the delta (δ) subunit compared to a GABAA receptor without it” value is reported as “selectively potentiate”. In data set [4] (unit in cell hr (head: min)), the half-life at 3 µM is over 240 min.

Turning to `C/C(=N\O)[C@H]1CC[C@H]2[C@@H]3CCC4C[C@](C)(O)CC[C@]4(C)[C@H]3CC[C@]12C` (stereo partly drawn) [compound 10], the “selectivity for GABAA receptor containing the delta (δ) subunit compared to a GABAA receptor without it” value in data set [2] was “selectively potentiate”.

The term EC50 denotes the concentration needed to bring the measured effect to its halfway point. As a reminder, the solubility is the concentration that dissolves in the medium under given conditions. A higher solubility goes with much dissolved substance.
